Assay results as given in ChEMBL document CHEMBL4359907, “Scalable and cost-effective tosylation-mediated synthesis of antifungal and fungal diagnostic 6″-Modified amphiphilic kanamycins” (Eur J Med Chem, 2019).
The source made the active and inactive calls. The rule behind the calls is not given here.

Key:
Staphylococcus aureus [1] = assay: Induction of membrane permeabilization in Staphylococcus aureus at 1/2 times MIC incubated for 5 mins by phase contrast microscopic method; assay type: functional, organism-based
Cryptococcus neoformans [2] = assay: Antifungal activity against Cryptococcus neoformans H99 incubated for 24 to 36 hrs by two fold dilution method; assay type: functional
Candida albicans [3] = assay: Antifungal activity against azole-resistant Candida albicans 64124 incubated for 24 to 36 hrs by two fold dilution method; assay type: functional
Candida albicans [4] = assay: Induction of membrane permeabilization in azole-resistant Candida albicans 64124 at 1/4 times MIC incubated for 5 mins by phase contrast microscopic method; assay type: functional, organism-based
Rhodotorula mucilaginosa = assay: Antifungal activity against Rhodotorula pilimanae ATCC 26423 incubated for 24 to 36 hrs by two fold dilution method; assay type: functional
Staphylococcus aureus [5] = assay: Antibacterial activity against methicillin-resistant Staphylococcus aureus ATCC 33591 incubated for 18 hrs by two fold dilution method; assay type: functional; details: ATCC 33591, 18 h
Escherichia coli [6] = assay: Induction of membrane permeabilization in Escherichia coli ATCC 25922 at MIC incubated for 5 mins by phase contrast microscopic method; assay type: functional, organism-based
Candida albicans [7] = assay: Induction of membrane permeabilization in azole-susceptible Candida albicans MYA2876 at 1/4 times MIC incubated for 5 mins by phase contrast microscopic method; assay type: functional, organism-based
Candida albicans [8] = assay: Antifungal activity against azole-susceptible Candida albicans MYA2876 incubated for 24 to 36 hrs by two fold dilution method; assay type: functional
Escherichia coli [9] = assay: Antibacterial activity against Escherichia coli ATCC 25922 incubated for 18 hrs by two fold dilution method; assay type: functional; details: ATCC 25922, 18 h
Staphylococcus aureus [10] = assay: Antibacterial activity against Staphylococcus aureus ATCC 25923 incubated for 18 hrs by two fold dilution method; assay type: functional; details: ATCC 25923, 18 h
Escherichia coli [11] = assay: Induction of membrane permeabilization in Escherichia coli ATCC 25922 at MIC incubated for 60 mins by phase contrast microscopic method; assay type: functional, organism-based
HeLa = assay: Cytotoxicity against human HeLa cells assessed as reduction in cell viability incubated for 24 hrs by MTT assay; assay type: cell-based
Cryptococcus neoformans [12] = assay: Antifungal activity against Cryptococcus neoformans VR-54 incubated for 24 to 36 hrs by two fold dilution method; assay type: functional
Staphylococcus aureus [13] = assay: Antibacterial activity against methicillin-resistant Staphylococcus aureus ATCC 43300 incubated for 18 hrs by two fold dilution method; assay type: functional; details: ATCC 43300, 18 h
Staphylococcus aureus [14] = assay: Induction of membrane permeabilization in Staphylococcus aureus at 1/2 times MIC incubated for 60 mins by phase contrast microscopic method; assay type: functional, organism-based
Fusarium graminearum = assay: Antifungal activity against Fusarium graminearum B4-5A incubated for 24 to 36 hrs by two fold dilution method; assay type: functional

SMILES: Cl.Cl.Cl.Cl.NC[C@H]1O[C@H](O[C@H]2[C@H](O)[C@@H](O[C@H]3O[C@H](CNC(=O)c4ccccc4-c4c5ccc(=O)cc-5oc5cc(O)ccc45)[C@@H](O)[C@H](N)[C@H]3O)[C@H](N)C[C@@H]2N)[C@H](O)[C@@H](O)[C@@H]1O
- Activity (Staphylococcus aureus [1]): inactive
- MIC (Cryptococcus neoformans [2]): 64 µg/mL
- MIC (Candida albicans [3]): 128 µg/mL
- Activity (Candida albicans [4]): Active
- MIC (Rhodotorula mucilaginosa): 32 µg/mL
- MIC (Staphylococcus aureus [5]): > 256 µg/mL
- Activity (Escherichia coli [6]): inactive
- Activity (Candida albicans [7]): Active
- MIC (Candida albicans [8]): 256 µg/mL
- MIC (Escherichia coli [9]): 32 µg/mL
- MIC (Staphylococcus aureus [10]): 64 µg/mL
- Activity (Escherichia coli [11]): Active
- IC50 (HeLa): > 100 µg/mL
- MIC (Cryptococcus neoformans [12]): 64 µg/mL
- MIC (Staphylococcus aureus [13]): > 256 µg/mL
- Activity (Staphylococcus aureus [14]): Active
- MIC (Fusarium graminearum): 32 µg/mL
